# Experimental data from patent US9346794B1, “Substituted 4-pyridones and their use as inhibitors of neutrophil elastase activity” (Boehringer Ingelheim International GmbH, priority 2012, dated 2016).
# Target: Human neutrophil elastase (Homo sapiens (Human), UniProt P08246)
# Assay: Human Neutrophil Elastase Assay
# Assay type: biochemical
# Conditions: substrate MeOSuc-Ala-Ala-Pro-Val-AMC 250 μM, fluorescence, pH 7.5
# Description: Human Neutrophil Elastase Assay
# All other materials were of the highest grade commercially available.
# The following buffers were used: Compound buffer: 100 mM Tris, 500 mM NaCl, adjusted to pH 7.5; Assay buffer: 100 mM Tris, 500 mM NaCl, adjusted to pH 7.5, containing 0.01% BSA.
# Assay conditions: Test compounds were prediluted in DMSO and subsequently in compound buffer (5% DMSO final). […] After inactivation of the enzyme, fluorescence intensities were measured at 380 nm excitation and 460 nm emission wavelengths.
# Each plate contains wells with a high value control (DMSO+enzyme+substrate) and wells with a low value control (DMSO+inactivated enzyme+substrate). IC50 values were estimated using a sigmoidal concentration response curve with variable slope. Means of low values were taken as 0%, means of high values as 100%. IC50 values of selected compound in the Neutrophil Elastase assay: […]
# Sequence of Human neutrophil elastase (P08246 30-247): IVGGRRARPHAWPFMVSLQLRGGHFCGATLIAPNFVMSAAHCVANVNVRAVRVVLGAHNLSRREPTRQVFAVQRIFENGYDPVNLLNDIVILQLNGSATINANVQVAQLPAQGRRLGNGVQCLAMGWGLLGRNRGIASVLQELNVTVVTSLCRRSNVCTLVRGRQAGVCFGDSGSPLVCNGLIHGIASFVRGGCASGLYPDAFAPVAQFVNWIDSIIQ
row,SMILES,IC50
1,"Cc1cc(CNC(=O)c2cn(C(C)C)c(C)c(-c3cccc(C(F)(F)F)c3)c2=O)ccc1S(C)(=O)=NC#N (stereo not drawn) [Example 66, 1-Isopropyl-6-methyl-4-oxo-5-(3-trifluoromethyl-phenyl)-1,4-dihydro-pyridine-3-carboxylic acid 3-methyl-4-(N-cyano-S-methylsulfonimidoyl)-benzylamide]",3.4 nM
2,"Cc1c(-c2cccc(C(F)(F)F)c2)c(=O)c(C(=O)NCc2ccc(S(C)(=O)=NC#N)cc2)cn1-c1cccnc1 (single isomer, unassigned) [Example 26]",3.3 nM
3,CCn1cc(C(=O)NCc2ccc(S(=O)(CC)=NC#N)cc2)c(=O)c(-c2cccc(C(F)(F)F)c2)c1C (stereo not drawn) [Example 10],1.2 nM
4,CCS(=O)(=NC#N)c1ccc(CNC(=O)c2cn(C(C)C)c(C)c(-c3cccc(C(F)(F)F)c3)c2=O)cc1 (stereo not drawn) [Example 12],< 1 nM
5,"Cc1c(-c2cccc(C(F)F)c2)c(=O)c(C(=O)NCc2ccc(S(C)(=O)=NC#N)cc2)cn1C(C)C (stereo not drawn) [Example 1, 5-(3-Difluoromethyl-phenyl)-1-isopropyl-6-methyl-4-oxo-1,4-dihydro-pyridine-3-carboxylic acid 4-(N-cyano-S-methylsulfonimidoyl)-benzylamide]",1.3 nM
6,"Cc1c(-c2ccnc(C(F)(F)F)c2)c(=O)c(C(=O)NCc2ccc(S(C)(=O)=NC#N)cc2)cn1-c1ccccc1 (single isomer, unassigned) [Example 43]",13.4 nM
7,"Cc1c(-c2cccc(C(F)F)c2)c(=O)c(C(=O)NCc2ccc(S(C)(=O)=NC#N)cc2)cn1-c1cccnc1 (single isomer, unassigned) [Example 39]",3.7 nM
8,Cc1cc(S(C)(=O)=NC#N)ccc1CNC(=O)c1cn(C(C)C)c(C)c(-c2cccc(C(F)F)c2)c1=O (stereo not drawn) [Example 34],2.4 nM
9,Cc1c(-c2cccc(C(F)F)c2)c(=O)c(C(=O)NCc2ccc(S(C)(=O)=NC#N)c(F)c2)cn1C(C)C (stereo not drawn) [Example 32],1.1 nM
10,"Cc1c(-c2cccc(C(F)(F)F)c2)c(=O)c(C(=O)NCc2ccc(S(C)(=O)=NC#N)cc2)cn1-c1ccccc1 (single isomer, unassigned) [Example 24]",5.5 nM
11,"Cc1c(-c2cccc(C(F)(F)F)c2)c(=O)c(C(=O)NCc2ccc(S(C)(=O)=NC#N)c[n+]2[O-])cn1C(C)C (stereo not drawn) [Example 62, 5-(3-Trifluoromethyl-phenyl)-1-isopropyl-6-methyl-4-oxo-1,4-dihydro-pyridine-3-carboxylic acid (5-(N-cyano-S-methylsulfonimidoyl)-1-oxy-pyridin-2-yl)-methylamide]",2.7 nM
12,"CCn1cc(C(=O)NCc2ccc(S(=O)(CC)=NC#N)cc2)c(=O)c(-c2cccc(C(F)F)c2)c1C (single isomer, unassigned) [Example 29A]",2.2 nM
13,Cc1noc(-n2cc(C(=O)NCc3ccc(S(C)(=O)=NC#N)cc3)c(=O)c(-c3cccc(C(F)(F)F)c3)c2C)c1C (stereo not drawn) [Example 49],7.3 nM
14,"CCn1cc(C(=O)NCc2ccc(S(=O)(=NC#N)C(C)C)cc2)c(=O)c(-c2cccc(C(F)F)c2)c1C (single isomer, unassigned) [Example 30B]",< 1 nM
15,"Cc1c(-c2ccnc(C(F)(F)F)c2)c(=O)c(C(=O)NCc2ccc(S(C)(=O)=NC#N)cc2)cn1C(C)C (racemic) [Example 3, 1-Isopropyl-2-methyl-4-oxo-2′-trifluoromethyl-1,4-dihydro-[3,4′]-bipyridinyl-5-carboxylic acid 4-(N-cyano-S-methylsulfonimidoyl)-benzylamide]",4.7 nM
16,"CCn1cc(C(=O)NCc2ccc(S(=O)(CC)=NC#N)cc2)c(=O)c(-c2cccc(C(F)(F)F)c2)c1C (single isomer, unassigned) [Example 10B]",1.2 nM
17,"Cc1c(-c2cccc(C(F)(F)F)c2)c(=O)c(C(=O)NCc2ccc(S(C)(=O)=NC#N)cn2)cn1C(C)C (stereo not drawn) [Example 16, 5-(3-trifluoromethyl-phenyl)-1-isopropyl-6-methyl-4-oxo-1,4-dihydro-pyridine-3-carboxylic acid (5-(N-cyano-S-methylsulfonimidoyl)pyridin-2-yl)methylamide]",1.9 nM
18,Cc1c(-c2cccc(C(F)(F)F)c2)c(=O)c(C(=O)NCc2ccc(S(C)(=O)=NC#N)c(F)c2)cn1C(C)C (stereo not drawn) [Example 13],2.4 nM
19,CCS(=O)(=NC#N)c1ccc(CNC(=O)c2cn(C(C)C)c(C)c(-c3cccc(C(F)F)c3)c2=O)cc1 (stereo not drawn) [Example 31],< 1 nM
20,CCn1cc(C(=O)NCc2ccc(S(=O)(=NC#N)C(C)C)cc2)c(=O)c(-c2cccc(C(F)(F)F)c2)c1C (stereo not drawn) [Example 11],< 1 nM
21,"Cc1c(-c2cccc(C(F)(F)F)c2)c(=O)c(C(=O)NCc2ccc(S(C)(=O)=NC#N)cc2)cn1-c1ccnn1C (single isomer, unassigned) [Example 47]",1.2 nM
22,Cc1c(-c2cccc(C(F)(F)F)c2)c(=O)c(C(=O)NCc2ccc(S(=O)(=NC#N)C(C)C)cc2)cn1-c1ccnn1C (stereo not drawn) [Example 19],1 nM
23,Cc1ccc(-n2cc(C(=O)NCc3ccc(S(C)(=O)=NC#N)cc3)c(=O)c(-c3cccc(C(F)(F)F)c3)c2C)cn1 (stereo not drawn) [Example 58],4.7 nM
24,"CCn1cc(C(=O)NCc2ccc(S(C)(=O)=NC#N)cc2)c(=O)c(-c2cccc(C(F)(F)F)c2)c1C (single isomer, unassigned) [Example 4A, 1-Ethyl-6-methyl-4-oxo-5-(3-trifluoromethyl-phenyl)-1,4-dihydro-pyridine-3-carboxylic acid 4-(N-cyano-S-methylsulfonimidoyl)-benzylamide]",4.1 nM
